Measured values: PMC3078584 (Analytical biochemistry, 2010)

Target: T1, His-Cbl(TKB) (Homo sapiens, UniProt P22681)
T1 sequence (P22681 47-351 limits assumed): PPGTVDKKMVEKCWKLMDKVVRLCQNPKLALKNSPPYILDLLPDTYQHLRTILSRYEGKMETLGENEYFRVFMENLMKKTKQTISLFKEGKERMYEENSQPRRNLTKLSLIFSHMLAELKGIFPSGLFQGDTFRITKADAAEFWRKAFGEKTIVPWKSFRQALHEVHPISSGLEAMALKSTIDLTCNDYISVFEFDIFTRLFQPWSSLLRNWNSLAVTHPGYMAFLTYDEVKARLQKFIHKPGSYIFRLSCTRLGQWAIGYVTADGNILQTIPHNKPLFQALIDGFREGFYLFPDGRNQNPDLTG
Test: Competitive FP assay, displacement of labeled ZAP70 peptide 1 from His-Cbl
Assay type: binding
Conditions: 100 nM labeled peptide 1

CC(=O)N[C@H](C(=O)N[C@@H](CC(C)C)C(=O)N[C@@H](CC(N)=O)C(=O)N[C@@H](CO)C(=O)N[C@@H](CC(=O)O)C(=O)NCC(=O)N[C@@H](Cc1ccc(OP(=O)(O)O)cc1)C(=O)N[C@H](C(=O)N1CCC[C@H]1C(=O)N[C@@H](CCC(=O)O)C(=O)N1CCC[C@H]1C(=O)N[C@@H](C)C(N)=O)[C@@H](C)O)[C@@H](C)O [ZAP70 peptide 2, Ac-TLNSDGpYTPEPA-CONH2]
ΔmP (competition) (0.3 μM His-Cbl(TKB)): do not give measureable IC50 or ΔmP values | ΔmP (competition) (1.25 μM His-Cbl(TKB)): do not give measureable IC50 or ΔmP values | ΔmP (competition) (5 μM His-Cbl(TKB)): 52.5 mP | ΔmP (competition) (9 μM His-Cbl(TKB)): 85.2 mP | ΔmP (competition) ([…] His-Cbl(TKB)): 25.7 mP
